We go through eight compounds from ChEMBL document CHEMBL1201862, “PubChem BioAssay data set” (2004).

Molecules are shown by their SMILES.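 Five compound concentrations were applied to cells in 96-well plates for 48 hours; endpoints were derived by simple linear interpolation of the resulting dose-response curve. Here, GI50 denotes the concentration required for 50% inhibition of growth.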 Active and inactive are the calls of the source. No stated cut-off is given here; in the data, active = GI50 up to about 1.1 µM and inactive = higher.

Test systems include SF-295; TK-10; SK-MEL-2; M14; COLO 205; RXF 393; NCI-H460; MDA-N; NCI-H522; SW-620; SK-OV-3; UACC-62; HT-29; EKVX; MDA-MB-435; UO-31; OVCAR-4; MDA-MB-231; SK-MEL-5; Hs-578T.
Holding throughout (experiment): NCI-60 cell line screen, 48 h

In the case of `CCS(=O)(=O)c1c2cc(OC)ccc2nc2ccc(OC)cc12`, the GI50 in the assay on SF-295, in the assay on TK-10, with SK-MEL-2, with M14, with COLO 205 and in the assay with RXF 393 was > 100 µM (inactive) in each case. Also, the GI50 with NCI-H460, in the assay with MDA-N, in the assay with NCI-H522, in the assay with SW-620, in the assay on SK-OV-3 and in the assay with UACC-62 was > 100 µM (inactive) each time. For the same compound, the GI50 in the assay with HT-29, in the assay on EKVX, in the assay on MDA-MB-435, in the assay on UO-31, in the assay on OVCAR-4 and in the assay with MDA-MB-231 was > 100 µM (inactive) in each case.

For the compound `CC(=O)OCC1OC(n2c(C)c(C(C)=O)c(-c3ccco3)c(C#N)c2=S)C(OC(C)=O)C(OC(C)=O)C1OC(C)=O` (stereo unspecified), the GI50 in the assay on SF-295, in the assay with TK-10, in the assay on M14, in the assay on COLO 205, with RXF 393 and with NCI-H460 was > 100 µM (inactive) throughout. Also, the GI50 in the assay on MDA-N, with NCI-H522, in the assay on SW-620, in the assay on SK-OV-3, in the assay with UACC-62 and in the assay on HT-29 was > 100 µM (inactive) each time. The GI50 was > 100 µM (inactive) in the assay on EKVX; > 100 µM (inactive) in the assay on MDA-MB-435; 78.5 µM (inactive) with SK-MEL-5; < 0.01 µM (active) in the assay with UO-31; > 100 µM (inactive) with MDA-MB-231.

For `Cc1n[n+]([O-])c(C)cc1[N+](=O)[O-]`, the GI50 with TK-10 was 8.67 µM (inactive); with SK-MEL-2, 20.1 µM (inactive); in the assay on M14, 15.7 µM (inactive); with COLO 205, 13.5 µM (inactive); with RXF 393 it was 25.2 µM (inactive); with NCI-H460, 14 µM (inactive). In addition, the GI50 with Hs-578T is 28.6 µM (inactive); in the assay with NCI-H522, 12.3 µM (inactive); in the assay with SW-620, 15 µM (inactive); in the assay with SK-OV-3, 93.8 µM (inactive); in the assay on UACC-62, 17.7 µM (inactive); in the assay with HT-29 it was 14.1 µM (inactive). Also, the GI50 in the assay with EKVX is 23.5 µM (inactive); with MDA-MB-435 it was 15.6 µM (inactive); in the assay with SK-MEL-5, 16.3 µM (inactive); in the assay on UO-31, 16.2 µM (inactive); in the assay on OVCAR-4 it was 19.4 µM (inactive); with MDA-MB-231, 18.2 µM (inactive).

With `COc1cc2c(cc1OCCCCN1CCN(CCCCOc3cc4c(cc3OC)C(=O)N3CCC[C@H]3C=N4)CC1)N=C[C@@H]1CCCN1C2=O`, the GI50 in the assay on SF-295 is < 0.0352 µM (active); in the assay with TK-10, 0.0589 µM (active); with SK-MEL-2, 0.0389 µM (active); in the assay with M14 it was 0.02 µM (active); with COLO 205 it was 0.0158 µM (active); in the assay on RXF 393, 0.0676 µM (active). Further, the GI50 was 0.0234 µM (active) in the assay with NCI-H460; 0.0608 µM (active) in the assay on Hs-578T; < 0.01 µM (active) in the assay on NCI-H522; < 0.0119 µM (active) with SW-620; 4.45 µM (inactive) in the assay on SK-OV-3; < 0.0105 µM (active) with UACC-62. For the same compound, the GI50 is 0.0443 µM (active) in the assay on HT-29; 0.281 µM (active) with EKVX; 0.0508 µM (active) with MDA-MB-435; 0.0138 µM (active) in the assay with SK-MEL-5; 0.0798 µM (active) with UO-31; 0.0776 µM (active) with OVCAR-4. Moreover, the GI50 in the assay with MDA-MB-231 is 0.0378 µM (active).

Regarding `O=Nc1c(-c2cccc([N+](=O)[O-])c2)nc2cnccn12`, the GI50 was 43.4 µM (inactive) with SF-295; 5.04 µM (inactive) with TK-10; 27.9 µM (inactive) with SK-MEL-2; 18.7 µM (inactive) in the assay on M14; 20 µM (inactive) in the assay with COLO 205; 23 µM (inactive) in the assay with RXF 393. In addition, the GI50 in the assay with NCI-H460 was 33.9 µM (inactive); in the assay with Hs-578T it was 31.7 µM (inactive); in the assay on NCI-H522, 14.6 µM (inactive); in the assay on SW-620, 10.1 µM (inactive); in the assay on SK-OV-3 it was 68.7 µM (inactive); in the assay on UACC-62 it was 18.5 µM (inactive). The GI50 with HT-29 was 14.3 µM (inactive); in the assay on EKVX, 34 µM (inactive); with MDA-MB-435 it was 20.1 µM (inactive); in the assay on SK-MEL-5 it was 29.4 µM (inactive); with UO-31, 11.7 µM (inactive); with OVCAR-4, 17.7 µM (inactive). In addition, the GI50 with MDA-MB-231 was 13.8 µM (inactive).

With `C/C(=C\COP(=O)(O)OP(=O)(O)O)CC/C=C(\C)CNc1c(F)c(F)c(F)c(F)c1F`, the GI50 in the assay on SF-295 was > 52.8 µM (inactive); in the assay with TK-10 it was > 51.1 µM (inactive); with SK-MEL-2 it was > 100 µM (inactive); in the assay with M14, > 100 µM (inactive); in the assay with COLO 205, > 100 µM (inactive); in the assay on RXF 393, > 22.9 µM (inactive). Further, the GI50 with NCI-H460 is > 100 µM (inactive); with Hs-578T, 31 µM (inactive); in the assay with NCI-H522, > 100 µM (inactive); in the assay with SW-620 it was > 84.7 µM (inactive); with SK-OV-3, > 100 µM (inactive); in the assay with UACC-62 it was > 51.9 µM (inactive). Moreover, the GI50 in the assay on HT-29 was > 58.3 µM (inactive); with EKVX it was > 54.3 µM (inactive); with MDA-MB-435 it was > 100 µM (inactive); in the assay on SK-MEL-5, > 100 µM (inactive); in the assay with UO-31, > 100 µM (inactive); with OVCAR-4 it was > 100 µM (inactive). The GI50 in the assay on MDA-MB-231 is 5.43 µM (inactive).

`Cn1cnc([N+](=O)[O-])c1[Se]c1ncnc2nc[nH]c12`: the GI50 in the assay with SF-295 is 4.21 µM (inactive); with TK-10, 1.91 µM (inactive); in the assay with SK-MEL-2, 10.4 µM (inactive); with M14, 5.47 µM (inactive); with COLO 205, 15.1 µM (inactive); in the assay on RXF 393, 15.5 µM (inactive). Besides, the GI50 is 22.1 µM (inactive) in the assay with NCI-H460; 3.7 µM (inactive) with Hs-578T; 3.57 µM (inactive) with NCI-H522; 10.3 µM (inactive) with SW-620; 15.4 µM (inactive) in the assay with SK-OV-3; 1.77 µM (inactive) in the assay with UACC-62. Further, the GI50 with HT-29 is 10 µM (inactive); in the assay on EKVX, 21.2 µM (inactive); in the assay with MDA-MB-435, 2 µM (inactive); in the assay with SK-MEL-5 it was 1.66 µM (inactive); with UO-31, 3.65 µM (inactive); in the assay on OVCAR-4, 3.32 µM (inactive). Moreover, the GI50 in the assay on MDA-MB-231 was 5 µM (inactive).

Regarding `CC[C@@]1(O)C(=O)OCc2c1cc1n(c2=O)Cc2cc3cc(O)ccc3nc2-1` [HYDROXYCAMPTOTHECIN], the GI50 with TK-10 was 2.69 µM (inactive); in the assay with SK-MEL-2, 0.473 µM (active); with M14, 0.0336 µM (active); in the assay on COLO 205, 0.125 µM (active); in the assay on RXF 393, 0.0236 µM (active); in the assay on Hs-578T, 1.04 µM (active). Besides, the GI50 in the assay on NCI-H522 is 0.0105 µM (active); in the assay on SK-OV-3, 0.0227 µM (active); with UACC-62, < 0.0075 µM (active); in the assay with MDA-MB-435 it was 0.0453 µM (active); in the assay with OVCAR-4 it was 0.092 µM (active); in the assay on MDA-MB-231, 0.867 µM (active).
